Residue numbers refer to the chain shown, from its start. “And” between values parts separate entries of the source, which are not always exact repeats. Equal entries are not always repeated.
Legend:
[1] = tested on: PfCRT variant F319A; assay: CQ uptake assay, oocytes expressing F319A; assay type: cell-based, Plasmodium falciparum
Procedure: (§1) Site-directed mutagenesis of PfCRT^Dd2 was performed as described using the megaprimer method with overlap extension[21],[54]. The primer pairs used are listed in Supplementary Table 6. Please note that a codon-optimized and oocyte-adapted version of PfCRT^Dd2 was used[22] (Supplementary Fig. 16). The resulting DNA fragment was cloned into the SP64T expression vector and verified by sequencing.
(§2) Oocytes were obtained as described previously. Briefly, adult (>2 years old) female X. laevis frogs (NASCO) were anesthetized in a cooled solution of ethyl 3-amino benzoate methanesulfonate (0.1%, w/v), followed by a surgical removal of parts of the ovary. The ovary lobes were carefully dissected and small pieces of oocytes were incubated in Ca^2+-free ND96 buffer (96 mM NaCl, 2 mM KCl, 1 mM MgCl2 buffered with 5 mM HEPES/NaOH, pH 7.5) supplemented with collagenase D (0.1%, w/v; Roche), BSA (0.5%, w/v), and 9 mm Na2HPO4 at 18 °C for 14-16 h while gentle shaking. After incubation, the oocytes were carefully washed several times with ND96 buffer (96 mM NaCl, 2 mM KCl, 1.8 mM CaCl2, 1 mM MgCl2 buffered with 5 mM HEPES/NaOH, pH 7.5) supplemented with 100 mg l^−1 gentamycin). Defolliculated and healthy-looking stage V-VI oocytes were manually selected for RNA microinjection. The RNA was generated as following: The codon-optimized sequences of PfCRT variants were cloned into the pSP64T expression vector. After vector linearization using the restriction endonucleases BamHI or SalI (New England Biolabs), transcription was performed using the in vitro SP6 mMessage mMachine Kit (Ambion)[34]. The obtained RNA was kept at −80 °C and diluted with nuclease-free water to a concentration of 0.6 μg μl^−1. Precision-bore glass capillary tubes (3.5-inch glass capillaries; Drummond Scientific Co.) were pulled on a vertical puller (P-87 Flaming/Brown micropipette puller, Sutter Instrument Co.), graduated, and placed on a microinjector (Nanoject II Auto-Nanoliter Injector, Drummond Scientific Co.). 50 nl of nuclease-free water alone (control oocytes) or 50 nl of 0.6 μg μl^−1 RNA were injected under stereomicroscopic control. Injected oocytes were incubated for 46–72 h at 18 °C with twice-daily buffer changes before usage in experiments.
Drug uptake assays were performed as described previously[21],[22],[24],[34]. […] The direction of radio-labeled drug transport is here from the mostly acidic extracellular solution (pH 4.5 or 6.0, as indicated) into the oocyte cytosol (pH ∼ 7.2), which corresponds to the efflux of drug from the acidic digestive vacuole (pH 5.2) into the parasite cytoplasm (pH 7.2). The topology of PfCRT in the oolemma is such that both the N- and C-terminus face the extracellular milieu[3],[22]. In the parasite, the N- and C-terminus face the lumen of the digestive vacuole. CQ uptake kinetics were performed by incubating oocytes in ND96 buffer adjusted to a pH of 4.5, 5.0, 5.5, or 6.0 and supplemented with 50 nM [^3H]CQ and one of 7 different CQ concentrations (10 µM, 50 µM, 100 µM, 200 µM, 300 µM, 400 µM, 500 µM CQ). The reaction was stopped at the 60 min time point, which is in the linear uptake range[22],[34] (Supplementary Fig. 17). […] The radioactivity of each sample was measured using a liquid scintillation analyzer Tri-Carb 4910 TR (PerkinElmer). Oocytes that were injected with water instead of RNA were analyzed in parallel, representing the uptake of a drug by diffusion and/or endogenous permeation pathways. […]

[2] = target: T1, PfCRT variant CD3 (F3A, E29A, F52A, Y238A, F340A, E399A, E407A) (Plasmodium falciparum, UniProt Q9N623, A220S/E29A/E399A/E407A/F340A/F3A/F52A/I356T/K76T/M74I/N326S/N75E/Q271E/R371I/Y238A); assay: CQ uptake assay, oocytes expressing CD3; assay type: cell-based
T1 sequence (Q9N623 1-424 F3A/E29A/F52A/M74I/N75E/K76T/A220S/Y238A/Q271E/N326S/F340A/I356T/R371I/E399A/E407A): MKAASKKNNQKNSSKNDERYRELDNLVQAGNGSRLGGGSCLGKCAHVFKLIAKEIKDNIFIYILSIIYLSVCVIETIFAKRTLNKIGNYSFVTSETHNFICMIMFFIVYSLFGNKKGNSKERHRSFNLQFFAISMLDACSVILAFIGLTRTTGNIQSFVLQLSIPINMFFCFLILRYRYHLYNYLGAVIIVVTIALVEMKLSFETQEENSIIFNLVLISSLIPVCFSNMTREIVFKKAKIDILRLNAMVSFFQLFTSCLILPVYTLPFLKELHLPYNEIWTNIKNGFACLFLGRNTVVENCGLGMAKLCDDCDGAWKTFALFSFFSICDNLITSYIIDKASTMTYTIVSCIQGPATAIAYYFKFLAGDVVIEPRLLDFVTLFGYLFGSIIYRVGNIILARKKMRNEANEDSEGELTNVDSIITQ
Procedure: as §1, §2
Drug uptake assays were performed as described previously[21],[22],[24],[34]. […] The direction of radio-labeled drug transport is here from the mostly acidic extracellular solution (pH 4.5 or 6.0, as indicated) into the oocyte cytosol (pH ∼ 7.2), which corresponds to the efflux of drug from the acidic digestive vacuole (pH 5.2) into the parasite cytoplasm (pH 7.2). The topology of PfCRT in the oolemma is such that both the N- and C-terminus face the extracellular milieu[3],[22]. In the parasite, the N- and C-terminus face the lumen of the digestive vacuole. CQ uptake kinetics were performed by incubating oocytes in ND96 buffer adjusted to a pH of 4.5, 5.0, 5.5, or 6.0 and supplemented with 50 nM [^3H]CQ and one of 7 different CQ concentrations (10 µM, 50 µM, 100 µM, 200 µM, 300 µM, 400 µM, 500 µM CQ). The reaction was stopped at the 60 min time point, which is in the linear uptake range[22],[34] (Supplementary Fig. 17). For determination of the amount of drug uptake for each oocyte, the reaction medium was removed and the oocytes were washed three times with 2 ml of ice-cold ND96 buffer. Each oocyte was individually transferred to a scintillation vial containing 5% sodium dodecyl sulfate (200 μl) for lysis. The radioactivity of each sample was measured using a liquid scintillation analyzer Tri-Carb 4910 TR (PerkinElmer). Oocytes that were injected with water instead of RNA were analyzed in parallel, representing the uptake of a drug by diffusion and/or endogenous permeation pathways. The resulting value represents the “background“ level of drug accumulation in oocytes (in-depth discussion in[22]). […]

[3] = target: T2, PfCRT variant E54A (Plasmodium falciparum, UniProt Q9N623, A220S/E54A/I356T/K76T/M74I/N326S/N75E/Q271E/R371I); assay: CQ uptake assay, oocytes expressing E54A; assay type: cell-based
T2 sequence (Q9N623 1-424 E54A/M74I/N75E/K76T/A220S/Q271E/N326S/I356T/R371I): T1 sequence (Q9N623 1-424 F3A/E29A/F52A/M74I/N75E/K76T/A220S/Y238A/Q271E/N326S/F340A/I356T/R371I/E399A/E407A) with A3F, A29E, A52F, E54A, A238Y, A340F, A399E, A407E
Procedure: as §1
as §2, with “Precision-bore glass capillary tubes (3.5-inch glass capillaries; Drummond Scientific Co.) were pulled on a vertical puller (P-87 Flaming/Brown micropipette puller, Sutter Instrument Co.), graduated, and placed on a microinjector (Nanoject II Auto-Nanoliter Injector, Drummond Scientific Co.). 50 nl of nuclease-free water alone (control oocytes) or 50 nl of 0.6 μg μl^−1 RNA were injected under stereomicroscopic control. Injected oocytes were incubated for 46–72 h at 18 °C with twice-daily buffer changes before usage in experiments.” left out
Drug uptake assays were performed as described previously[21],[22],[24],[34]. […] The radioactivity of each sample was measured using a liquid scintillation analyzer Tri-Carb 4910 TR (PerkinElmer). Oocytes that were injected with water instead of RNA were analyzed in parallel, representing the uptake of a drug by diffusion and/or endogenous permeation pathways. […]

[4] = F319A, 50 µM CQ, 1 h, mean ± SEM
[5] = pH 4.5, single replicates, Fig 1d left
[6] = pH 6.0, single replicates, Fig 1d left

CCN(CC)CCCC(C)Nc1ccnc2cc(Cl)ccc12 (centres unmarked) [CQ, chloroquine]
Activity at pH 4.5 [1, 4]: 0.90 ± 0.25 pmol h-1 oocyte-1
Activity at pH 6.0 [1, 4]: 3.64 ± 0.45 pmol h-1 oocyte-1
R-value ([1]; F319A, CQ transport at pH 4.5 / pH 6.0): 0.26 ± 0.07
F319A transport activity pH 4.5 [1, 5]: 0.43 pmol oocyte-1 h-1 and 1.48 pmol oocyte-1 h-1 and 0.80 pmol oocyte-1 h-1
F319A transport activity pH 6.0 [1, 6]: 4.19 pmol oocyte-1 h-1 and 3.55 pmol oocyte-1 h-1 and 3.19 pmol oocyte-1 h-1
Activity at pH 4.5 ([2]; CD3, 50 µM CQ, 1 h, mean ± SEM): 1.78 ± 0.46 pmol h-1 oocyte-1
Activity at pH 6.0 ([2]; CD3, 50 µM CQ, 1 h, mean ± SEM): 2.73 ± 0.57 pmol h-1 oocyte-1
R-value ([2]; CD3, CQ transport at pH 4.5 / pH 6.0): 0.62 ± 0.06
CD3 transport activity pH 4.5 [2, 5]: 0.66 pmol oocyte-1 h-1 and 2.21 pmol oocyte-1 h-1 and 2.46 pmol oocyte-1 h-1
CD3 R-value ([2]; pH 4.5 vs pH 6.0, Fig 1d left): 0.47 and 0.72 and 0.65
CD3 transport activity pH 6.0 [2, 6]: 1.39 pmol oocyte-1 h-1 and 3.05 pmol oocyte-1 h-1 and 3.76 pmol oocyte-1 h-1
Activity at pH 4.5 ([3]; 50 µM CQ, 1 h, mean ± SEM): 1.38 ± 0.17 pmol h-1 oocyte-1
Activity at pH 6.0 ([3]; 50 µM CQ, 1 h, mean ± SEM): 3.36 ± 0.45 pmol h-1 oocyte-1
R-value ([3]; CQ transport at pH 4.5 / pH 6.0): 0.44 ± 0.07

Reference: PMC10349806 (Nature Communications, 2023)
